According to patent publication US4994446A, “Drug system” (Ramot - University Authority for Applied Research and …, priority 1989, dated 1991):
Where a name gives a salt, the structure may show the parent alone.

Tests used:
NMDA receptor channel [1] = assay: [3H]MK-801-receptor association kinetics, repeatedly washed rat cerebral cortex membranes; assay type: binding
Description: (§1) Binding assays were performed in triplicate at 25° C. with repeatedly washed rat cerebral cortex membranes (80 μg protein) as described in Biochem. ibid. Assays were carried out in the absence or in the presence of 10^-4 M AP-5, or in the presence of 10 μM MgCl2 together with 1 μM L-glutamate and 1 μM glycine. Nonspecific binding was determined in samples containing 10^-4 M PCP. Data were expressed as the specific binding of [^3 H]MK-801 and analyzed according to the two-step binding model of interactions between noncompetitive blockers and the NMDA receptor channel. The model assumes a first order diffusion of the ligand from the outside into the interior of the channel, followed by association of the ligand with its receptor sites. Under the two extreme conditions employed here, viz., binding of [^3 H]MK-801 in the presence of agonists (unlimited diffusion) and in the absence of agonists (limited diffusion) the time courses of receptor occupation should respectively follow pseudo first order (eq. 1) and first order (eq. 2) kinetics:
([RL]eq-[RL])/[RL]eq≡exp.-(k1k2[L]/kb -k- 1)t eq. 1
1-{Kd [RL]/[L](RT ]-[RL ]}=exp.-Kb t eq. 2
where L, RT, RLeq and RL are respectively the ligand, the total number of binding sites, the bound ligand at equilibrium and at time t. ka and kb are the forward and background diffusion constants; k1 and k- 1 are the second order on-rate and the first order off-rate constants for the binding process. The overall equilibrium binding constant (Kd) is given by K- 1·kb /k1·k2.
FIG. 1A illustrates the time course of association of [^3 H] 801 (5 nM) with the NMDA receptor channel. Binding was determined at 25° C. as a function of time in the absence and in the presence of glutamate and glycine or in the presence of AP-5; whereas 1B illustrates the observed time constants (Kobs) derived from the pseudo first order plots of the association of 2, 5 and 8.6 nM [^3 H] 801 in the presence of glutamate and glycine plotted as a function of the ligand concentration. FIG. 1C is a first order plot (eq. 2) of [^3 H] 801-receptor association in the absence of agonists determined with ligand concentrations of 2 nM and 8.6 nM.

NMDA receptor channel [2] = assay: Equilibrium binding of [3H]MK-801 (Scatchard), rat cerebral cortex membranes; conditions: for Kd: 4 hr at 25° C., read-out: Kd determined at equilibrium
Description: as §1
FIG. 2 left illustrates the equilibrium binding of [^3 H] 801. Binding of [^3 H] 801 as a function of its concentration was assayed after incubation for 4 hr at 25° C. in the absence or in the presence of glutamate and glycine. Also shown are data for [^3 H] 801 binding to the receptor measured after their incubation for 3 hr followed by an additional 1 hr of incubation in the presence of 100 μM AP-5. Data are expressed in the form of Scatchard plot.

NMDA receptor channel [3] = assay: Dissociation of [3H]MK-801-receptor complexes, initiated by 100 μM unlabeled PCP; assay type: binding, rat
Description: as §1
Samples were incubated at 25° C. with 8 nM [^3 H] 801 for 2 hr. The dissociation reaction was initiated by the addition of 100 μM unlabeled PCP. […] Reactions were terminated either immediately (zero time) or at the indicated times. Bo --amount of [^3 H]MK-801 bound at zero time. Bt --amount of [^3 H] 801 bound at time t.

[4] = 5 nM ligand, with glutamate and glycine, 25° C.
[5] = presence of glutamate and glycine

| Compound | effect on rate of [3H]MK-801-receptor association (NMDA receptor channel [1]; AP-5 (10^-4 M) by itself, compared to control level) | effect on equilibrium binding of preequilibrated [3H]MK-801-receptor complexes (NMDA receptor channel [2]; 3 hr incubation, then 1 hr with 100 μM AP-5) | effect on rate of [3H]MK-801-receptor dissociation (NMDA receptor channel [3]; 100 μM AP-5 by itself, compared to control level) | incubation time to reach equilibrium (NMDA receptor channel [1]; 5 nM ligand, absence of exogenous agonists, 25° C.) [h] | association t1/2 (NMDA receptor channel [1]; [4]) [min] | time to approach equilibrium (NMDA receptor channel [1]; [4]) [min] | half times of the association reactions (NMDA receptor channel [1]; absence of exogenous agonists, did not vary with ligand concentration) [min] | apparent off-rate time constant (k-1) from association (NMDA receptor channel [1]; presence of glutamate and glycine (FIG. 1B)) [min⁻¹] | Kd (NMDA receptor channel [1]; presence of glutamate and glycine, read-out: kinetically derived dissociation constant (Kd), ratio of off-rate and on-rate constants) [nM] | increase in ligand-receptor binding immediately after onset of binding (NMDA receptor channel [1]; with glutamate and glycine vs control without) | Kd (NMDA receptor channel [2]; absence of glutamate and glycine) [nM] | Kd (NMDA receptor channel [2]; [5]) [nM] | dissociation rate constant (NMDA receptor channel [3]; [5]) [min⁻¹] |
| --- | --- | --- | --- | --- | --- | --- | --- | --- | --- | --- | --- | --- | --- |
| N[C@H](CCCP(=O)(O)O)C(=O)O [AP-5, D(-)2-amino-5-phosphovaleric acid] | decreases the rates | did not alter the equilibrium binding | decreases the rates |  |  |  |  |  |  |  |  |  |  |
| C[C@]12N[C@H](Cc3ccccc31)c1ccccc12 [[^3 H]MK-801, (+) 5 methyl-10,11 dihydro-5H-dibenzo[a,d]cyclohepten-5,10-imine maleate] |  |  |  | > 6 | ~7 | 45 to 60 | 60 to 70 | 0.075 | 4.8 | ~ 9 times that of the control | 2.1 | 4.2 | 0.1 |
